Source: article PMC5601071 (Frontiers in Pharmacology, 2017)
Residues, ends and D or L forms follow the SMILES beside them. *: point of attachment. FITC = O=C1OC2(c3ccc(O)cc3Oc3cc(O)ccc32)c2ccc(NC(=S)*)cc21; 5FAM = O=C1OC2(c3ccc(O)cc3Oc3cc(O)ccc32)c2ccc(C(=O)*)cc21; Biotin = O=C1N[C@H]2[C@H](CS[C@H]2CCCCC(=O)*)N1; Dansyl = CN(C)c1cccc2c(S(=O)(=O)*)cccc12; Fmoc = O=C(OCC1c2ccccc2-c2ccccc21)*; Stearoyl = CCCCCCCCCCCCCCCCCC(=O)*; Palmitoyl = CCCCCCCCCCCCCCCC(=O)*; Myristoyl = CCCCCCCCCCCCCC(=O)*; For = O=C*

Test system: not listed separately
Assay: In vitro degradation / half-life time in serum
Type: in vitro ADME, mouse
Details: spadin incubated with mouse serum; HPLC peaks identified by mass spectroscopy
Experimental: […] Incubations were stopped by direct acidification (5 μl of 2.5 M HCl), loaded in C-18 sepack cartridges, lyophilized, resuspended in 20% acetonitrile before loading onto HPLC for analysis of PE degradation/stability. Elutions of HPLC products were carried out by means of a 50-min linear gradient of acetonitrile from 20 to 70% at a flow rate of 1 ml/min. The amount of the intact PE for each incubation time was expressed as the percent of the initial amount of spadin.

Compound | time of maximal appearance of degradation peak in serum [min]
CC[C@H](C)[C@H](NC(=O)[C@@H]1CCCN1C(=O)CNC(=O)[C@H](CO)NC(=O)[C@H](Cc1c[nH]c2ccccc12)NC(=O)[C@H](CCCNC(=N)N)NC(=O)[C@@H]1CCCN1C(=O)[C@H](CC(C)C)NC(=O)[C@@H]1CCCN1C(=O)[C@H](C)N)C(=O)NCC(=O)N[C@H](C(=O)N[C@@H](CO)C(=O)N[C@@H](Cc1c[nH]c2ccccc12)C(=O)NCC(=O)N[C@@H](CC(C)C)C(=O)O)C(C)C [PE 12-27] (H-APLPRWSGPIGVSWGL-OH) | 30
CC[C@H](C)[C@H](NC(=O)[C@@H]1CCCN1C(=O)CNC(=O)[C@H](CO)NC(=O)[C@H](Cc1c[nH]c2ccccc12)NC(=O)[C@H](CCCNC(=N)N)NC(=O)[C@@H]1CCCN1C(=O)[C@@H](N)CC(C)C)C(=O)NCC(=O)N[C@H](C(=O)N[C@@H](CO)C(=O)N[C@@H](Cc1c[nH]c2ccccc12)C(=O)O)C(C)C [PE 14-25] (H-LPRWSGPIGVSW-OH) | 15

Biological target: T1, TREK-1 channel (hTREK-1/HEK cells) (Homo sapiens, UniProt O95069)
T1 construct: expressed in transfected cells
T1 sequence (O95069 1-426): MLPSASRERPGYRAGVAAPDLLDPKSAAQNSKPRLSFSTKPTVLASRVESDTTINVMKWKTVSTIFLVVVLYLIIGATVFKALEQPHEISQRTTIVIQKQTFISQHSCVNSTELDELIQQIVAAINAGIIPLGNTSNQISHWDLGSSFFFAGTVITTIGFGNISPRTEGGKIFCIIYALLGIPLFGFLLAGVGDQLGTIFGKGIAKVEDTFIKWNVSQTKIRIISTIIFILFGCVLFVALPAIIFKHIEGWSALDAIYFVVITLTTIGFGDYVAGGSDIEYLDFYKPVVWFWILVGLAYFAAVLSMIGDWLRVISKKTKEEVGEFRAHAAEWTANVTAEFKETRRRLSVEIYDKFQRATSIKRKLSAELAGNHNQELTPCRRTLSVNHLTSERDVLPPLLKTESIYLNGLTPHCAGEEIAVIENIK
Assay: TREK-1 current inhibition, whole-cell patch-clamp on hTREK-1/HEK cell line
Type: cell-based
Details: HEK293, peptide 100 nM; TREK-1 first activated with 10 μM arachidonic acid (AA); current density at 0 mV; hTREK-1/HEK cells; mean ± SEM, n = cells; read-out: % of TREK-1 inhibition
Experimental: The human TREK-1/HEK cell line (Moha ou Maati et al., [2011]) and the native HEK293 cell line were maintained in Dulbecco's Modified Eagle's Medium (DMEM) supplemented with 10% (v/v) heat-inactivated fetal bovine serum, 1% (v/v) penicillin-streptomycin, 1% Glutamax. For the hTREK-1/HEK cells, 0.5 mg/ml G418 were added to the medium.
Cells were incubated in a humidified atmosphere containing 5% CO2. For electrophysiological measurements, cells were plated at a density of 20,000 cells per 35 mm dish.
Cells from the hTREK-1/HEK cell line were seeded at a density of 20,000 cells/35 mm dish. Electrophysiological recordings were performed 24–48 h after plating using the whole-cell configuration of patch-clamp technique. TREK-1 currents (ITREK−1) were recorded using RK400 patch-clamp amplifier (Axon Instrument, USA). They were low-pass filtered at 3 kHz and digitized at 10 kHz using a 12-bit analog-to-digital converter digidata (1322 series, Axon Instrument, USA). ITREK−1amplitudes were expressed as current densities [current amplitude (pA)/membrane capacitance (pF)]. The results were expressed as mean ± SEM (standard error of the mean).
Cells were continuously perfused using an external bath solution containing in mM: 150 NaCl, 5 KCl, 3 MgCl2, 1 CaCl2, and 10 HEPES. The bath solution was initially adjusted to pH 7.4 with NaOH. The intra-pipette solution contained in mM: 155 KCl, 3 MgCl2, 5 EGTA, and 10 HEPES adjusted to pH 7.2 with KOH. In order to measure ITREK−1, a cocktail of potassium channel blockers was added to the bath solution. This cocktail contained: 3 mM 4-AP (4-aminopyridine), 10 mM TEA (tetraethylammonium), 10 μM Glibenclamide, 100 nM Apamin, and 50 nM Charybdotoxin. Data acquisition was carried out using a computer (Dell Pentium) with pClamp software (Axon Instrument, USA). Whole-cell currents were generated by running a pulse or ramp protocol every 5 s from −100 to +60 mV with a holding potential maintained at −80 mV. To evaluate the inhibitory effect on TREK-1 channels of shortened spadin analogs compared with spadin, cells were first activated by 10 μM arachidonic acid (AA). Dose-response curves were realized to compare spadin-analog effects with spadin using Origin 8.6 (Northampton, MA, USA).
Patch-clamp recording data were analyzed using Clampfit (Molecular Devices, USA). I = f(V) curves were obtained from −100 to +60 mV ramp. Data were presented as mean ± SEM.

Compound | inhibition at 0.1 µM [%]
CC(C)C[C@H](NC(=O)CNC(=O)[C@H](Cc1c[nH]c2ccccc12)NC(=O)[C@H](CO)NC(=O)[C@@H](NC(=O)CNC(=O)c1ccc2c(c1)C(=O)OC21c2ccc(O)cc2Oc2cc(O)ccc21)C(C)C)C(=O)N[C@@H](CCCNC(=N)N)C(=O)O [5'FAM-PE 22-28] (5FAM-GVSWGLR-OH) | 6.63 ± 7.07
CC(C)C[C@H](NC(=O)CNC(=O)[C@H](Cc1c[nH]c2ccccc12)NC(=O)[C@H](CO)NC(=O)[C@@H](NC(=O)[C@H](C)NC(=O)CCCC[C@@H]1SC[C@@H]2NC(=O)N[C@@H]21)C(C)C)C(=O)N[C@@H](CCCNC(=N)N)C(=O)O [Biotinylated G/A-PE 22-28] (Biotin-AVSWGLR-OH) | 46.1 ± 7.74
CC(C)C[C@H](NC(=O)CNC(=O)[C@H](Cc1c[nH]c2ccccc12)NC(=O)[C@H](CO)NC(=O)[C@@H](NC(=O)CNC(=O)CCCC[C@@H]1SC[C@@H]2NC(=O)N[C@@H]21)C(C)C)C(=O)N[C@@H](CCCNC(=N)N)C(=O)O [Biotinylated-PE 22-28] (Biotin-GVSWGLR-OH) | 53 ± 6.42
CC[C@H](C)[C@H](NC(=O)[C@@H]1CCCN1C(=O)CCCC[C@@H]1SC[C@@H]2NC(=O)N[C@@H]21)C(=O)NCC(=O)N[C@H](C(=O)N[C@@H](CO)C(=O)N[C@@H](Cc1c[nH]c2ccccc12)C(=O)NCC(=O)N[C@@H](CC(C)C)C(=O)N[C@@H](CCCNC(=N)N)C(=O)O)C(C)C [Biotinylated-PI-PE 22-28] (Biotin-PIGVSWGLR-OH) | 49.1 ± 7.45
CC(C)C[C@H](NC(=O)CNC(=O)[C@H](Cc1c[nH]c2ccccc12)NC(=O)[C@H](CO)NC(=O)[C@@H](NC(=O)CNC(=S)Nc1ccc2c(c1)C(=O)OC21c2ccc(O)cc2Oc2cc(O)ccc21)C(C)C)C(=O)N[C@@H](CCCNC(=N)N)C(=O)O [FITC-PE 22-28] ({FITC}-GVSWGLR-OH) | 22.1 ± 12.6
CC(C)C[C@H](NC(=O)CNC(=O)[C@H](Cc1c[nH]c2ccccc12)NC(=O)[C@H](CO)NC(=O)[C@@H](NC(=O)[C@H](C)N)C(C)C)C(=O)N[C@@H](CCCNC(=N)N)C(=O)O [G/A-PE 22-28] (H-AVSWGLR-OH) | 50.6 ± 7.93
CC[C@H](C)[C@H](NC(=O)[C@@H]1CCCN1C(=O)CNC(=O)[C@H](CO)NC(=O)[C@H](Cc1c[nH]c2ccccc12)NC(=O)[C@H](CCCNC(=N)N)NC(=O)[C@@H]1CCCN1C(=O)[C@H](CC(C)C)NC(=O)[C@@H]1CCCN1C(=O)[C@H](C)N)C(=O)NCC(=O)N[C@H](C(=O)N[C@@H](CO)C(=O)N[C@@H](Cc1c[nH]c2ccccc12)C(=O)NCC(=O)N[C@@H](CC(C)C)C(=O)O)C(C)C [PE 12-27] (H-APLPRWSGPIGVSWGL-OH) | 28.4 ± 9.9
CC[C@H](C)[C@H](NC(=O)[C@@H]1CCCN1C(=O)CNC(=O)[C@H](CO)NC(=O)[C@H](Cc1c[nH]c2ccccc12)NC(=O)[C@H](CCCNC(=N)N)NC(=O)[C@@H]1CCCN1C(=O)[C@@H](N)CC(C)C)C(=O)NCC(=O)N[C@H](C(=O)N[C@@H](CO)C(=O)N[C@@H](Cc1c[nH]c2ccccc12)C(=O)O)C(C)C [PE 14-25] (H-LPRWSGPIGVSW-OH) | -14.7 ± 10.6
CC(C)[C@H](NC(=O)CN)C(=O)N[C@@H](CO)C(=O)N[C@@H](Cc1c[nH]c2ccccc12)C(=O)O [PE 22-25] (H-GVSW-OH) | 36 ± 17.5
CC(C)C[C@H](NC(=O)CNC(=O)[C@H](Cc1c[nH]c2ccccc12)NC(=O)[C@H](CO)NC(=O)[C@@H](NC(=O)CN)C(C)C)C(=O)O [PE 22-27] (H-GVSWGL-OH) | 25.7 ± 20
CCOC(=O)[C@H](CCCNC(=N)N)NC(=O)[C@H](CC(C)C)NC(=O)CNC(=O)[C@H](Cc1c[nH]c2ccccc12)NC(=O)[C@H](CO)NC(=O)[C@@H](NC(=O)CN)C(C)C [PE 22-28-O-Ethyl] (H-GVSWGLR-OEt) | 41.4 ± 11.5
COC(=O)[C@H](CCCNC(=N)N)NC(=O)[C@H](CC(C)C)NC(=O)CNC(=O)[C@H](Cc1c[nH]c2ccccc12)NC(=O)[C@H](CO)NC(=O)[C@@H](NC(=O)CN)C(C)C [PE 22-28-O-Methyl] (H-GVSWGLR-OMe) | 43 ± 13.5
CC(C)C[C@H](NC(=O)CNC(=O)[C@H](Cc1c[nH]c2ccccc12)NC(=O)[C@H](CO)NC(=O)[C@@H](NC(=O)CN)C(C)C)C(=O)N[C@@H](CCCNC(=N)N)C(=O)O [PE 22-28] (H-GVSWGLR-OH) | 55.5 ± 4.55
CC[C@H](C)[C@H](NC(=O)[C@@H]1CCCN1)C(=O)NCC(=O)N[C@H](C(=O)N[C@@H](CO)C(=O)N[C@@H](Cc1c[nH]c2ccccc12)C(=O)NCC(=O)N[C@@H](CC(C)C)C(=O)N[C@@H](CCCNC(=N)N)C(=O)O)C(C)C [PI-PE 22-28] (H-PIGVSWGLR-OH) | 46.2 ± 7.57

Same assay, conditions: HEK293, read-out: % of TREK-1 inhibition

Compound | inhibition at 0.1 µM [%]
CC(=O)NCC(=O)N[C@H](C(=O)N[C@@H](CO)C(=O)N[C@@H](Cc1c[nH]c2ccccc12)C(=O)NCC(=O)N[C@@H](CC(C)C)C(=O)N[C@@H](CCCNC(=N)N)C(=O)O)C(C)C [Acetyl-PE 22-28] (Ac-GVSWGLR-OH) | 20.5 ± 8.78
CC(C)C[C@H](NC(=O)CNC(=O)[C@H](Cc1c[nH]c2ccccc12)NC(=O)[C@H](CO)NC(=O)[C@@H](NC(=O)CNS(=O)(=O)c1cccc2c(N(C)C)cccc12)C(C)C)C(=O)N[C@@H](CCCNC(=N)N)C(=O)O [DansyI-PE 22-28] (Dansyl-GVSWGLR-OH) | 48.8 ± 14.5
CC(C)C[C@H](NC(=O)CNC(=O)[C@H](Cc1c[nH]c2ccccc12)NC(=O)[C@H](CO)NC(=O)[C@@H](NC(=O)CNC(=O)OCC1c2ccccc2-c2ccccc21)C(C)C)C(=O)N[C@@H](CCCNC(=N)N)C(=O)O [F-Moc-PE 22-28] (Fmoc-GVSWGLR-OH) | 5.83 ± 10.9
CC(C)C[C@H](NC(=O)CNC(=O)[C@H](Cc1c[nH]c2ccccc12)NC(=O)[C@H](CO)NC(=O)[C@@H](NC(=O)CNC=O)C(C)C)C(=O)N[C@@H](CCCNC(=N)N)C(=O)O [Formyl-PE 22-28] (For-GVSWGLR-OH) | 32.5 ± 12.2
CCCCCCCCCCCCCC(=O)NCC(=O)N[C@H](C(=O)N[C@@H](CO)C(=O)N[C@@H](Cc1c[nH]c2ccccc12)C(=O)NCC(=O)N[C@@H](CC(C)C)C(=O)N[C@@H](CCCNC(=N)N)C(=O)O)C(C)C [Myristoyl-PE 22-28] (Myristoyl-GVSWGLR-OH) | 18 ± 17.8
CCCCCCCCCCCCCCCC(=O)NCC(=O)N[C@H](C(=O)N[C@@H](CO)C(=O)N[C@@H](Cc1c[nH]c2ccccc12)C(=O)NCC(=O)N[C@@H](CC(C)C)C(=O)N[C@@H](CCCNC(=N)N)C(=O)O)C(C)C [Palmitoyl-PE 22-28] (Palmitoyl-GVSWGLR-OH) | 26.7 ± 16.4
CCCCCCCCCCCCCCCCCC(=O)NCC(=O)N[C@H](C(=O)N[C@@H](CO)C(=O)N[C@@H](Cc1c[nH]c2ccccc12)C(=O)NCC(=O)N[C@@H](CC(C)C)C(=O)N[C@@H](CCCNC(=N)N)C(=O)O)C(C)C [Stearic acid-PE 22-28] (Stearoyl-GVSWGLR-OH) | 5.41 ± 5.5

Same assay, conditions: peptide 100 nM after 10 μM AA; n = 8, p = 0.09

Compound | current density measured at 0 mV compared with AA activity alone (100%) [%]
CC[C@H](C)[C@H](NC(=O)[C@@H]1CCCN1C(=O)CNC(=O)[C@H](CO)NC(=O)[C@H](Cc1c[nH]c2ccccc12)NC(=O)[C@H](CCCNC(=N)N)NC(=O)[C@@H]1CCCN1C(=O)[C@@H](N)CC(C)C)C(=O)NCC(=O)N[C@H](C(=O)N[C@@H](CO)C(=O)N[C@@H](Cc1c[nH]c2ccccc12)C(=O)O)C(C)C [PE 14-25] (H-LPRWSGPIGVSW-OH) | 114.7 ± 10.6
